Laboratory results as given in PubChem BioAssay (NCI).
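Exposure lasted 48 hours, with cells grown in 96-well plates and compounds tested at five concentrations. TGI is the concentration that stops growth completely.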

What was measured:
Experiment in all cases: DTP human tumour cell line panel, 48 h
SF-295 CNS = tested on: SF-295 CNS
RXF 393 renal = tested on: RXF 393 renal
SF-539 CNS = tested on: SF-539 CNS
SNB-78 CNS = tested on: SNB-78 CNS
RPMI-8226 leukemia = tested on: RPMI-8226 leukemia
UACC-257 melanoma = tested on: UACC-257 melanoma
HOP-62 NSCLC = tested on: HOP-62 NSCLC
TK-10 renal = tested on: TK-10 renal
DLD-1 colon = tested on: DLD-1 colon
SK-MEL-5 melanoma = tested on: SK-MEL-5 melanoma
OVCAR-4 ovarian = tested on: OVCAR-4 ovarian
CAKI-1 renal = tested on: CAKI-1 renal
LXFL 529 NSCLC = tested on: LXFL 529 NSCLC
SK-MEL-28 melanoma = tested on: SK-MEL-28 melanoma
MOLT-4 leukemia = tested on: MOLT-4 leukemia
SN12C renal = tested on: SN12C renal
LOX IMVI melanoma = tested on: LOX IMVI melanoma
CCRF-CEM leukemia = tested on: CCRF-CEM leukemia
KM12 colon = tested on: KM12 colon
OVCAR-8 ovarian = tested on: OVCAR-8 ovarian
NCI-H460 lung = tested on: NCI-H460 lung
A549 NSCLC = tested on: A549 NSCLC
HCT-15 colon = tested on: HCT-15 colon
IGROV1 ovarian = tested on: IGROV1 ovarian
UO-31 renal = tested on: UO-31 renal
HOP-92 NSCLC = tested on: HOP-92 NSCLC
NCI-H226 lung = tested on: NCI-H226 lung
SNB-75 CNS = tested on: SNB-75 CNS
ACHN renal = tested on: ACHN renal
MALME-3M melanoma = tested on: MALME-3M melanoma
A498 renal = tested on: A498 renal
COLO 205 colon = tested on: COLO 205 colon
U251 CNS = tested on: U251 CNS
786-0 renal = tested on: 786-0 renal
HL-60(TB) leukemia = tested on: HL-60(TB) leukemia
SF-268 CNS = tested on: SF-268 CNS
XF 498 CNS = tested on: XF 498 CNS
OVCAR-3 ovarian = tested on: OVCAR-3 ovarian
HOP-18 NSCLC = tested on: HOP-18 NSCLC
SR leukemia = tested on: SR leukemia
M19-MEL melanoma = tested on: M19-MEL melanoma
SK-OV-3 ovarian = tested on: SK-OV-3 ovarian
DMS 273 small cell lung = tested on: DMS 273 small cell lung
NCI-H23 lung = tested on: NCI-H23 lung
HCT-116 colon = tested on: HCT-116 colon
M14 melanoma = tested on: M14 melanoma
EKVX NSCLC = tested on: EKVX NSCLC
HT29 colon = tested on: HT29 colon
OVCAR-5 ovarian = tested on: OVCAR-5 ovarian
K-562 leukemia = tested on: K-562 leukemia
KM20L2 colon = tested on: KM20L2 colon
DMS 114 small cell lung = tested on: DMS 114 small cell lung
HCC-2998 colon = tested on: HCC-2998 colon
SNB-19 CNS = tested on: SNB-19 CNS
SW-620 colon = tested on: SW-620 colon
UACC-62 melanoma = tested on: UACC-62 melanoma
NCI-H522 lung = tested on: NCI-H522 lung
SK-MEL-2 melanoma = tested on: SK-MEL-2 melanoma

## Cn1cnc([N+](=O)[O-])c1Sc1nc2ccccc2[nH]1
SF-295 CNS
  TGI: > 100 µM
RXF 393 renal
  TGI: 25.3 µM
SF-539 CNS
  TGI: 27.8 µM
SNB-78 CNS
  TGI: 88 µM
RPMI-8226 leukemia
  TGI: 56.4 µM
UACC-257 melanoma
  TGI: 34.4 µM
HOP-62 NSCLC
  TGI: > 100 µM
TK-10 renal
  TGI: 40.8 µM
DLD-1 colon
  TGI: 22.2 µM
SK-MEL-5 melanoma
  TGI: 26.2 µM
OVCAR-4 ovarian
  TGI: > 100 µM
CAKI-1 renal
  TGI: 17.2 µM
LXFL 529 NSCLC
  TGI: 20.1 µM
SK-MEL-28 melanoma
  TGI: 26.1 µM
MOLT-4 leukemia
  TGI: 29.9 µM
SN12C renal
  TGI: 30.2 µM
LOX IMVI melanoma
  TGI: 51 µM
CCRF-CEM leukemia
  TGI: 90.1 µM
KM12 colon
  TGI: 48.4 µM
OVCAR-8 ovarian
  TGI: 30.4 µM
NCI-H460 lung
  TGI: 64.9 µM
A549 NSCLC
  TGI: 54 µM
HCT-15 colon
  TGI: 33.1 µM
IGROV1 ovarian
  TGI: 54.4 µM
UO-31 renal
  TGI: 51.9 µM
HOP-92 NSCLC
  TGI: 40.8 µM
NCI-H226 lung
  TGI: 78.1 µM
SNB-75 CNS
  TGI: 49.9 µM
ACHN renal
  TGI: 59.9 µM
MALME-3M melanoma
  TGI: 35 µM
A498 renal
  TGI: 55.9 µM
COLO 205 colon
  TGI: 23.1 µM
U251 CNS
  TGI: 74.5 µM
786-0 renal
  TGI: > 100 µM
HL-60(TB) leukemia
  TGI: > 100 µM
SF-268 CNS
  TGI: 38.5 µM
XF 498 CNS
  TGI: 18.5 µM
OVCAR-3 ovarian
  TGI: > 100 µM
HOP-18 NSCLC
  TGI: > 100 µM
SR leukemia
  TGI: 45.1 µM
M19-MEL melanoma
  TGI: 29.7 µM
SK-OV-3 ovarian
  TGI: 61.8 µM
DMS 273 small cell lung
  TGI: 3.43 µM
NCI-H23 lung
  TGI: 48.4 µM
HCT-116 colon
  TGI: 30.1 µM
M14 melanoma
  TGI: 56.3 µM
EKVX NSCLC
  TGI: 36.9 µM
HT29 colon
  TGI: > 100 µM
OVCAR-5 ovarian
  TGI: > 100 µM
K-562 leukemia
  TGI: > 100 µM
KM20L2 colon
  TGI: 61.5 µM
DMS 114 small cell lung
  TGI: 21.7 µM
HCC-2998 colon
  TGI: 26.9 µM

## CC1=NS(=O)(=O)c2ccccc2N1
SF-295 CNS
  TGI: > 100 µM
RXF 393 renal
  TGI: > 100 µM
SF-539 CNS
  TGI: > 100 µM
SNB-78 CNS
  TGI: > 100 µM
UACC-257 melanoma
  TGI: > 100 µM
HOP-62 NSCLC
  TGI: > 100 µM
TK-10 renal
  TGI: > 100 µM
SNB-19 CNS
  TGI: > 100 µM
DLD-1 colon
  TGI: > 100 µM
SK-MEL-5 melanoma
  TGI: > 100 µM
OVCAR-4 ovarian
  TGI: > 100 µM
SW-620 colon
  TGI: > 100 µM
CAKI-1 renal
  TGI: > 100 µM
LXFL 529 NSCLC
  TGI: > 100 µM
SK-MEL-28 melanoma
  TGI: > 100 µM
MOLT-4 leukemia
  TGI: > 100 µM
SN12C renal
  TGI: > 100 µM
LOX IMVI melanoma
  TGI: > 100 µM
CCRF-CEM leukemia
  TGI: > 100 µM
KM12 colon
  TGI: > 100 µM
OVCAR-8 ovarian
  TGI: > 100 µM
NCI-H460 lung
  TGI: > 100 µM
A549 NSCLC
  TGI: > 100 µM
HCT-15 colon
  TGI: > 100 µM
IGROV1 ovarian
  TGI: > 100 µM
UO-31 renal
  TGI: > 100 µM
HOP-92 NSCLC
  TGI: > 100 µM
UACC-62 melanoma
  TGI: > 100 µM
NCI-H226 lung
  TGI: > 100 µM
SNB-75 CNS
  TGI: > 100 µM
ACHN renal
  TGI: > 100 µM
MALME-3M melanoma
  TGI: > 100 µM
A498 renal
  TGI: > 100 µM
COLO 205 colon
  TGI: > 100 µM
U251 CNS
  TGI: > 100 µM
786-0 renal
  TGI: > 100 µM
HL-60(TB) leukemia
  TGI: > 100 µM
NCI-H522 lung
  TGI: > 100 µM
SF-268 CNS
  TGI: > 100 µM
OVCAR-3 ovarian
  TGI: > 100 µM
HOP-18 NSCLC
  TGI: > 100 µM
SR leukemia
  TGI: > 100 µM
M19-MEL melanoma
  TGI: > 100 µM
SK-OV-3 ovarian
  TGI: > 100 µM
DMS 273 small cell lung
  TGI: > 100 µM
NCI-H23 lung
  TGI: > 100 µM
HCT-116 colon
  TGI: > 100 µM
M14 melanoma
  TGI: > 100 µM
EKVX NSCLC
  TGI: > 100 µM
HT29 colon
  TGI: > 100 µM
OVCAR-5 ovarian
  TGI: > 100 µM
K-562 leukemia
  TGI: > 100 µM
SK-MEL-2 melanoma
  TGI: > 100 µM
KM20L2 colon
  TGI: > 100 µM
DMS 114 small cell lung
  TGI: > 100 µM
HCC-2998 colon
  TGI: > 100 µM
